According to patent publication US20220273596A1, “SYNERGISTIC COMBINATION OF S-KETOROLAC AND PREGABALIN IN A PHARMACEUTICAL COMPOSITION FOR THE TREATMENT OF NEUROPATHIC PAIN” (priority 2019, published 2022):

Experiments:
[1] = tested on: cold allodynia in rats with chronic constriction injury (CCI) of the sciatic nerve; experiment: Acetone test (cold allodynia) in rats with chronic constriction injury of the sciatic nerve (Bennett and Xie model); type: in vivo, Male Wistar rats; conditions: for anti-allodynic effect: oral, temporal course 0-180 min; for dose dependence of anti-allodynic effects: given orally, alone; for Anti-allodynic efficacy: Maximal efficacy (AUC: X ± SE): most efficacious dose po: Pregabalin 31.6 mg/Kg, S-ketorolac 1.0 mg/Kg, AUC of 180-min temporal course, maximum possible 300 au, n=6; for maximal anti-allodynic effect (AUC): pregabalin 31.6 mg/Kg po, S-Ket 1.0 mg/Kg po, 180-min temporal course; for Anti-allodynic efficacy: Relative efficacy: relative to pregabalin, Pregabalin 31.6 mg/Kg po, S-ketorolac 1.0 mg/Kg po
Description: (§1) Male Wistar rats were used in the experiments. […] The animals were kept in polycarbonate cages under controlled temperature and light conditions, with 12-hour light/darkness cycles and free access to food and water. All experiments were performed during the light phase of the light/darkness cycles. The animals were used and handled according to the international guidelines on Ethical Standards for Investigations of Experimental Pain established by the Committee for Research and Ethical Issues of the International Association for the Study of Pain. The number of experiment animals was kept to a minimum (n=6), and at the end of the experimental assessments the animals were sacrificed using carbon dioxide.
(§2) Immediately after the rats were anesthetized, their right hind limb sciatic nerves were dissected through an incision, in which the biceps femoris muscle was dissected for locating the most proximal site to the trifurcation of the sciatic nerve, and to apply four loose ligations with silk thread.
(§3) Once the surgery was finished, the muscle was sutured with absorbable thread, and the skin was sutured with silk thread. Sham surgery in rats was performed likewise, although without ligating the sciatic nerve. All procedures were performed under aseptic conditions. The degree of hyperalgesia and allodynia in rats subjected to sciatic nerve surgery was determined using the Von Frey test (mechanical hyperalgesia) and the acetone test (cold allodynia).
The acetone test (cold allodynia) was performed and assessed as follows: Once the Von Frey test was finished, rats were left to rest over the metallic mesh, and after a 5-10 minute period, 0.1 mL of acetone was applied on the sole callosities of the right hindlimb with a syringe with a flexible plastic point from under the mesh. Then, a chronometer recorded the time in seconds in which the animals kept the hindlimb away from the mesh during the first 60 seconds after being exposed to acetone. The response time of the right hindlimb was measured. Three measurements were made (1 measurement every 2 minutes).
(§4) In a first stage, the experimental design of the groups and the experiments were performed as follows: • a) Several groups of 6 animals with neuropathic pain (sciatic nerve ligation) were formed.
All combinations to be assessed were designed. It was decided to evaluate combinations with 24 different proportions, to have the fullest possible notion of the interaction of these 2 analgesics, and for obtaining and determining the optimal combinations in terms of efficacy and anti-allodynic potentiation.

[2] = tested on: mechanical hyperalgesia in rats with chronic constriction injury (CCI) of the sciatic nerve; experiment: Von Frey test (mechanical hyperalgesia, 15-gram filament) in rats with chronic constriction injury of the sciatic nerve; type: in vivo, Male Wistar rats; conditions: for dose dependence of anti-hyperalgesic effects: given orally, alone; for Antihyperalgesic efficacy: Maximal efficacy (AUC: X ± SE): most efficacious dose po: Pregabalin 31.6 mg/Kg, S-ketorolac 3.16 mg/Kg, AUC of 180-min temporal course, n=6; for maximal antihyperalgesic effect (AUC): pregabalin 31.6 mg/Kg po, S-Ket 3.16 mg/Kg po; for Antihyperalgesic efficacy: Relative efficacy: relative to pregabalin, Pregabalin 31.6 mg/Kg po, S-ketorolac 3.16 mg/Kg po
Description: as §1, §2, §3
Von Frey test (mechanic hyperalgesia). Rats were placed over a metallic mesh in a clear acrylic box and remained in the box at least 10 minutes before the test, in order to allow the rats to adapt to the environment. The response was determined by means of a tactile stimulus on the sole callosities of the right hindlimb with the 15-gram Von Frey filament. Ten stimuli were applied (one stimulus approximately every 3 seconds), and the response percentage was obtained (% response=number of responses/10 ×100).
as §4
It was decided to base assessments on 6 doses of the pregabalin DRCs (0.0316, 0.1, 0.316, 1.0, 3.16 and 10 mg/Kg) and to combine them with 4 different S-ketorolac doses (0.0316, 0.10, 0.316 and 1.0 mg/Kg p.o.).

[3] = pregabalin 10.0 mg/Kg po alone, reached 3 h after administration

Compound	anti-allodynic effect ([1]; 0.0316 mg/Kg dose)	anti-allodynic effect ([1]; 31.6 mg/Kg dose)	dose dependence of anti-allodynic effects [1]	Anti-allodynic efficacy: Maximal efficacy (AUC: X ± SE) [1]	anti-allodynic Emax [1, 3] [%]	maximal anti-allodynic effect (AUC) [1] [ua]	Anti-allodynic efficacy: Relative efficacy [1]	dose dependence of anti-hyperalgesic effects [2]	more anti-hyperalgesia than S-ketorolac ([2]; most effective oral doses given alone) [%]	Antihyperalgesic efficacy: Maximal efficacy (AUC: X ± SE) [2]	antihyperalgesic effect ([2]; pregabalin 0.316 mg/Kg po alone, over the assessment period)	antihyperalgesic Emax [2, 3] [%]	maximal antihyperalgesic effect (AUC) [2] [ua]	Antihyperalgesic efficacy: Relative efficacy [2]	anti-allodynic effect ([1]; 1.0 mg/Kg dose)	anti-allodynic Emax ([1]; S-ketorolac 0.316 mg/Kg po alone, reached 30 minutes after administration) [%]	anti-allodynic efficacy as percent of that induced by oral pregabalin ([1]; S-ketorolac 1.0 mg/Kg po vs pregabalin 31.6 mg/Kg po) [%]	antihyperalgesic effect ([2]; S-ketorolac 1.0 mg/Kg po alone)	antihyperalgesic Emax ([2]; S-ketorolac 1.0 mg/Kg po alone, reached 60 minutes after administration) [%]	antihyperalgesic efficacy as percent of that delivered by pregabalin ([2]; S-ketorolac 3.16 mg/Kg po vs pregabalin 31.6 mg/Kg po) [%]
CC(C)C[C@H](CN)CC(=O)O [Pregabalin, (3S)-3-(aminomethyl)-5-methylhexanoic acid]	almost no anti-allodynic effect	significant anti-allodynic effect	dose-dependent anti-allodynic effects	241.6 ± 9.5	83.4±3.7	241.6±9.5	1.0	dose-dependent anti-hyperalgesic effects	49	220.4 ± 12.3	practically no antihyperalgesic effects	78.3±5.4	220.4±12.3	1.0						
O=C(c1ccccc1)c1ccc2n1CCC2C(=O)O (centres unmarked) [S-ketorolac, 5-Benzoyl-2,3-dihydro-1H-pyrrolizine-1-carboxylic acid]	almost no anti-allodynic effect		dose-dependent anti-allodynic effects	111.2 ± 20.3		111.2±20.3	0.46	dose-dependent anti-hyperalgesic effects		112.5 ± 3.5			112.5±3.5	0.51	significant anti-allodynic effect	44.0±7.7	46	little antihyperalgesic effect	40.0±5.8	51
